From ChEMBL document CHEMBL1141252, “Antitrypanosomal activity of triterpenoids and sterols from the leaves of Strychnos spinosa and related compounds” (J Nat Prod, 2007)
pIC50: −log10 of the molar value. Activity calls are given as the source filed them. No cut-off for these calls is given here.

How the values were obtained:
J774 = assay: Cytotoxicity against mouse J774 cells by alamar blue assay; format: cell-based
[1] = Cytotoxicity against human lung cancer cells; format: functional, cell-based; conditions: Cancer cell lines
[2] = Cytotoxicity against human colon cancer cells; format: functional, cell-based; conditions: Cancer cell lines
[3] = Selectivity index, ratio of IC50 for mouse J774 cells to IC50 for Trypanosoma brucei brucei bloodstream trypomastigotes; format: functional
[4] = Cytotoxicity against human leukemia cells; format: functional, cell-based; conditions: Leukemia cell
[5] = tested on: Trypanosoma brucei brucei; assay: Antitrypanosomal activity against Trypanosoma brucei brucei bloodstream trypomastigotes by alamar blue assay; format: functional, organism-based
[6] = Cytotoxicity against mouse leukemic cells; format: functional, cell-based; conditions: Leukemic tumor cell line
Trypanosoma cruzi [7] = assay: Antitrypanosomal activity against South American Trypanosoma cruzi bloodstream trypomastigotes at 80.4 uM; format: functional
Trypanosoma cruzi [8] = assay: Antitrypanosomal activity against South American Trypanosoma cruzi bloodstream trypomastigotes at 21 uM; format: functional
[9] = tested on: Trypanosoma brucei rhodesiense; assay: Antitrypanosomal activity against Trypanosoma brucei rhodesiense bloodstream trypomastigotes; format: functional, organism-based

C=CC(CC[C@@H](C)[C@H]1CC[C@H]2[C@@H]3CC=C4C[C@@H](O)CC[C@]4(C)[C@H]3CC[C@]12C)(OO)C(C)C (some centres undefined) gave a pIC50 (J774) of 4.79, a pIC50 [1] of 6.15 and a pIC50 [2] of 6.15. For the same compound, the “Ratio IC50” value [3] was 5.2, the pIC50 [4] was 6.15 and the pIC50 [5] was 5.49. The pIC50 [6] was 6.15.
With C[C@H]1[C@H](C)CC[C@]2(C)CC[C@]3(C)C(=CC[C@@H]4[C@@]5(C)CC[C@H](O)C(C)(C)[C@@H]5CC[C@]43C)[C@H]12 the pIC50 (J774) was 3.89, the “Ratio IC50” value [3] was 1.1 and the pIC50 [5] was 3.94.
With CC[C@H](CC[C@@H](C)[C@H]1CC[C@H]2[C@@H]3CC=C4C[C@@H](O)CC[C@]4(C)[C@H]3CC[C@]12C)C(C)C [BETA-SITOSTEROL] the pIC50 (J774) was < 3.62 and the pIC50 [5] was < 3.62.
With C=C(C)[C@@H]1CC[C@]2(C(=O)O)CC[C@]3(C)[C@H](CC[C@@H]4[C@@]5(C)CC[C@H](O)C(C)(C)[C@@H]5CC[C@]43C)[C@@H]12 [BETULINIC ACID] the pIC50 (J774) was 4.36, the “Ratio IC50” value [3] was 1.3 and the pIC50 [5] was 4.49.
With C=C(C)[C@@H]1CC[C@]2(CO)CC[C@]3(C)[C@H](CC[C@@H]4[C@@]5(C)CC[C@H](O)C(C)(C)[C@@H]5CC[C@]43C)[C@@H]12 [BETULIN] the pIC50 (J774) was 4.17, the “Ratio IC50” value [3] was 7.4 and the pIC50 [5] was 5.05.
With C=C(C)[C@@H](CC)CC[C@@H](C)[C@H]1CC[C@H]2[C@@H]3CC=C4C[C@@H](O)CC[C@]4(C)[C@H]3CC[C@]12C [CLEROSTEROL] the pIC50 (J774) was < 3.62, the “Ratio IC50” value [3] was >1.9 and the pIC50 [5] was 3.89.
For COc1cc2c(c(OC)c1OC)-c1ccc(OC)c(=O)cc1[C@@H](NC(C)=O)CC2 [COLCHICINE], the pIC50 (J774) was 6.68.
For CC1(C)CC[C@]2(CO)CC[C@]3(C)C(=CC[C@@H]4[C@@]5(C)CC[C@H](O)C(C)(C)[C@@H]5CC[C@]43C)[C@@H]2C1 [ERYTHRODIOL], the pIC50 (J774) was 4.30, the “Ratio IC50” value [3] was 4.2 and the pIC50 [5] was 4.92.
In the case of C=C(C)[C@@H]1CC[C@]2(C)CC[C@]3(C)[C@H](CC[C@@H]4[C@@]5(C)CC[C@H](O)C(C)(C)[C@@H]5CC[C@]43C)[C@@H]12 [LUPEOL], the pIC50 (J774) was < 3.63, the “Ratio IC50” value [3] was >5.2 and the pIC50 [5] was 4.34.
For CC1(C)CC[C@]2(C(=O)O)CC[C@]3(C)C(=CC[C@@H]4[C@@]5(C)CC[C@H](O)C(C)(C)[C@@H]5CC[C@]43C)[C@@H]2C1 [OLEANOLIC_ACID], the pIC50 (J774) was 3.88, the “Ratio IC50” value [3] was 20.6 and the pIC50 [5] was 5.19. The Activity (Trypanosoma cruzi [7]) was 50% and the Activity (Trypanosoma cruzi [8]) was 50%.
In the case of C=CC(O)(CC[C@@H](C)[C@H]1CC[C@H]2[C@@H]3CC=C4C[C@@H](O)CC[C@]4(C)[C@H]3CC[C@]12C)C(C)C (some centres undefined) [SARINGOSTEROL], the pIC50 (J774) was < 3.63, the “Ratio IC50” value [3] was >30.3 and the pIC50 [5] was 5.11.
In the case of CC[C@H](CC[C@@H](C)[C@H]1CC[C@H]2[C@@H]3CC[C@H]4C[C@@H](O)CC[C@]4(C)[C@H]3CC[C@]12C)C(C)C [STIGMASTANOL], the pIC50 (J774) was < 3.62 and the pIC50 [5] was < 3.62.
For CC[C@H](/C=C/[C@@H](C)[C@H]1CC[C@H]2[C@@H]3CC=C4C[C@@H](O)CC[C@]4(C)[C@H]3CC[C@]12C)C(C)C [STIGMASTEROL], the pIC50 (J774) was < 3.62, the “Ratio IC50” value [3] was >1.8 and the pIC50 [5] was 3.87.
In the case of Cc1ccc(C(=O)Nc2ccc(S(=O)(=O)O)c3cc(S(=O)(=O)O)cc(S(=O)(=O)O)c23)cc1NC(=O)c1cccc(NC(=O)Nc2cccc(C(=O)Nc3cc(C(=O)Nc4ccc(S(=O)(=O)O)c5cc(S(=O)(=O)O)cc(S(=O)(=O)O)c45)ccc3C)c2)c1 [SURAMIN], the pIC50 [5] was 7.39.
For C[C@H]1[C@H](C)CC[C@]2(C(=O)O)CC[C@]3(C)C(=CC[C@@H]4[C@@]5(C)CC[C@H](O)C(C)(C)[C@@H]5CC[C@]43C)[C@H]12 [URSOLIC ACID], the pIC50 (J774) was 4.88, the “Ratio IC50” value [3] was 6 and the pIC50 [5] was 5.66. The Activity (Trypanosoma cruzi [7]) was 50% and the Activity (Trypanosoma cruzi [8]) was 50%.
In the case of C[C@H]1[C@H](C)CC[C@]2(CO)CC[C@]3(C)C(=CC[C@@H]4[C@@]5(C)CC[C@H](O)C(C)(C)[C@@H]5CC[C@]43C)[C@H]12 [UVAOL], the pIC50 (J774) was 3.81, the “Ratio IC50” value [3] was 5.6 and the pIC50 [5] was 4.56.
In the case of CC1(C)CC[C@]2(C)CC[C@]3(C)C(=CC[C@@H]4[C@@]5(C)CC[C@H](O)C(C)(C)[C@@H]5CC[C@]43C)[C@@H]2C1 [beta-AMYRIN], the pIC50 (J774) was < 3.63, the Activity [9] was “inactive” and the “Ratio IC50” value [3] was >1.8. The pIC50 [5] was 3.90.
